One series concerns mock-infected MT-4 cells. The series is described as follows: Cytotoxicity based on viability of mock-infected host cells (MTT method). Format: cell-based. The following applies: mock-infected MT-4 cells, MTT method, 4 or 5 days at 37° C. How it is done: (§1) MT-4 cells were suspended in culture media at 2.5×10^5 cells/ml and infected with 1000 CCID50 (50% cell culture infective dose) of HIV. Immediately after virus infection, 100 μl of cell suspension was brought into each well of a flat-bottomed microtitray containing various concentrations of the test compounds. After 4 or 5 days incubation at 37° C., efficacy of the compounds was determined by the MTT method. Cytotoxicity of the compounds was assessed in parallel with their antiviral activity, based on viability of mock-infected host cells as determined by the MTT method.

The next series relates to HIV. The series is described as follows: microbe, parasite or virus in culture. It is filed as cell-based. As for the experimental part: Anti-HIV activity tests in vitro of the compounds according to the present invention were performed as described in J. Med. Chem, 34, 357, 1991. Inhibition by the compounds of virus-induced cytotoxic effect in MT-4 cells was measured as follows.
as §1

[1] abbreviates: Human immunodeficiency virus 1, MT4, HIV-infected MT-4 cells, MTT method, 4 or 5 days at 37° C., read-out: ED50 (the source's name).
The mark [2] stands for this setting: Human immunodeficiency virus 1, MT4, read-out: ED50.

Structures are written as SMILES. Converted amounts (≈) assume the structure as drawn. Where two headings read alike, the source gives them in different places. Bounds are passed on as bounds.

`CCc1c(Sc2cc(C)cc(C)c2)n(Cc2ccccc2C#N)c(=O)[nH]c1=O` [Example 37, 1-(2-Cyanobenzyl)-5-ethyl-6-(3,5-dimethylphenyl)thio-2,4-pyrimidinedione]: the melting point lay within 221 to 223 °C. The compound also registered a CD50 in the series with mock-infected MT-4 cells above 100.00 µg/mL. Also, the EC50 in the series with HIV (setting [1]) came out at 0.043 µg/mL (≈ 0.11 µM).

For `Cc1cc(C)cc(Sc2c(C(C)C)c(=O)[nH]c(=O)n2Cc2ccccc2C#N)c1` [Example 38, 1-(2-Cyanobenzyl)-5-isopropyl-6-(3,5-dimethylphenyl)-thio-2,4-pyrimidinedione], the melting point lay within 238 to 240 °C. This compound also displayed a CD50 in the series with mock-infected MT-4 cells above 100.00 µg/mL. The EC50 with HIV (setting [1]) came to 0.082 µg/mL (≈ 0.202 µM).

The compound `CCc1c(Oc2cc(C)cc(C)c2)n(Cc2ccccc2C#N)c(=O)[nH]c1=O` [Example 39, 1-(2-Cyanobenzyl)-5-ethyl-6-(3,5-dimethylphenoxy)-2,4-pyrimidinedione] came in with a melting point of 267 to 270 °C. In the series on mock-infected MT-4 cells, this compound displayed a CD50 of 60.47 µg/mL. Moreover, the EC50 in the series on HIV (setting [1]) stood at 0.619 µg/mL (≈ 1.65 µM).

As for `Cc1cc(C)cc(Oc2c(C(C)C)c(=O)[nH]c(=O)n2Cc2ccccc2C#N)c1` [Example 40, 1-(2-Cyanobenzyl)-5-isopropyl-6-(3,5-dimethylphenoxy)-2,4-pyrimidinedione], the melting point was 276 to 278 °C. For the same compound, in the series with mock-infected MT-4 cells, the CD50 is above 100.00 µg/mL. In addition, the EC50 in the series with HIV (setting [1]) is above 100 µg/mL.

With `CCc1c(C(=O)c2cc(C)cc(C)c2)n(Cc2ccccc2C#N)c(=O)[nH]c1=O` [Example 41, 1-(2-Cyanobenzyl)-5-ethyl-6-(3,5-dimethylbenzoyl)-2,4-pyrimidinedione], the melting point was in the range of 257 to 259 °C. In the series with mock-infected MT-4 cells, this compound showed a CD50 of 2.56 µg/mL. Besides, the EC50 with HIV (setting [1]) amounted to 0.003 µg/mL (≈ 0.00774 µM).

In turn, `Cc1cc(C)cc(C(=O)c2c(C(C)C)c(=O)[nH]c(=O)n2Cc2ccccc2C#N)c1` [Example 42, 1-(2-Cyanobenzyl)-5-isopropyl-6-(3,5-dimethylbenzoyl)-2,4-pyrimidinedione] displayed a melting point of 250 to 253 °C. In addition, the CD50 in the series with mock-infected MT-4 cells is above 100.00 µg/mL. Moreover, the EC50 in the series with HIV (setting [1]) worked out at 0.005 µg/mL (≈ 0.0125 µM).

`CCc1c(Sc2cc(C)cc(C)c2)n(Cc2cccc(C#N)c2)c(=O)[nH]c1=O` [Example 43, 1-(3-Cyanobenzyl)-5-ethyl-6-(3,5-dimethylphenyl)thio-2,4-pyrimidinedione] registered a melting point of 179 to 181 °C. Besides, the CD50 with mock-infected MT-4 cells is 1.77 µg/mL. Also, the EC50 with HIV (setting [2]) was 0.015 µg/mL (≈ 0.0383 µM).

As to `Cc1cc(C)cc(Sc2c(C(C)C)c(=O)[nH]c(=O)n2Cc2cccc(C#N)c2)c1` [Example 44, 1-(3-Cyanobenzyl)-5-isopropyl-6-(3,5-dimethylphenyl)thio-2,4-pyrimidinedione], the melting point lay within 186 to 188 °C. In addition, in the series on mock-infected MT-4 cells, the CD50 is 8.88 µg/mL. For the same compound, the EC50 in the series on HIV (setting [2]) was determined as 0.008 µg/mL (≈ 0.0197 µM).

As to `CCc1c(Oc2cc(C)cc(C)c2)n(Cc2cccc(C#N)c2)c(=O)[nH]c1=O` [Example 45, 1-(3-Cyanobenzyl)-5-ethyl-6-(3,5-dimethylphenoxy)-2,4-pyrimidinedione], the melting point lay in the range of 213 to 214 °C. The same compound came in with a CD50 with mock-infected MT-4 cells above 100.00 µg/mL. The EC50 with HIV (setting [2]) was 0.061 µg/mL (≈ 0.162 µM).

As for `Cc1cc(C)cc(Oc2c(C(C)C)c(=O)[nH]c(=O)n2Cc2cccc(C#N)c2)c1` [Example 46, 1-(3-Cyanobenzyl)-5-isopropyl-6-(3,5-dimethylphenoxy)-2,4-pyrimidinedione], the melting point is 160 to 162 °C. This compound displayed a CD50 in the series on mock-infected MT-4 cells of 9.20 µg/mL. The EC50 in the series with HIV (setting [2]) was determined as 0.023 µg/mL (≈ 0.0591 µM).

Take `CCc1c(C(=O)c2cc(C)cc(C)c2)n(Cc2cccc(C#N)c2)c(=O)[nH]c1=O` [Example 47, 1-(3-Cyanobenzyl)-5-ethyl-6-(3,5-dimethylbenzoyl)-2,4-pyrimidinedione]: the melting point fell in the range of 206 to 207 °C. This compound showed a CD50 with mock-infected MT-4 cells of 2.53 µg/mL. In the series with HIV (setting [2]), the EC50 stood at 0.003 µg/mL (≈ 0.00774 µM).

Take `Cc1cc(C)cc(C(=O)c2c(C(C)C)c(=O)[nH]c(=O)n2Cc2cccc(C#N)c2)c1` [Example 48, 1-(3-Cyanobenzyl)-5-isopropyl-6-(3,5-dimethylbenzoyl)-2,4-pyrimidinedione]: the melting point was 202 to 204 °C. In addition, in the series on mock-infected MT-4 cells, the CD50 is 8.07 µg/mL. In the series on HIV (setting [2]), the EC50 worked out at 0.003 µg/mL (≈ 0.00747 µM).

Regarding `CCc1c(Sc2cc(C)cc(C)c2)n(Cc2cc(C)cc(C)c2)c(=O)[nH]c1=O` [Example 49, 1-(3,5-Dimethylbenzyl)-5-ethyl-6-(3,5-dimethylphenyl)thio-2,4-pyrimidinedione], the melting point is 180 to 182 °C. In the series on mock-infected MT-4 cells, the CD50 worked out at 7.48 µg/mL. The EC50 in the series with HIV (setting [2]) was 0.014 µg/mL (≈ 0.0355 µM).

The compound `Cc1cc(C)cc(Cn2c(Sc3cc(C)cc(C)c3)c(C(C)C)c(=O)[nH]c2=O)c1` [Example 50, 1-(3,5-Dimethylbenzyl)-5-isopropyl-6-(3,5-dimethylphenyl)thio-2,4-pyrimidinedione] registered a melting point of 164 to 166 °C. For the same compound, the CD50 in the series on mock-infected MT-4 cells stood at 8.70 µg/mL. Moreover, the EC50 with HIV (setting [2]) was found to be 0.015 µg/mL (≈ 0.0367 µM).

`CCc1c(Oc2cc(C)cc(C)c2)n(Cc2cc(C)cc(C)c2)c(=O)[nH]c1=O` [Example 51, 1-(3,5-Dimethylbenzyl)-5-ethyl-6-(3,5-dimethylphenoxy)-2,4-pyrimidinedione] gave a melting point of 130 to 132 °C. In addition, the CD50 with mock-infected MT-4 cells was 8.01 µg/mL. Moreover, in the series on HIV (setting [2]), the EC50 amounted to 0.13 µg/mL (≈ 0.343 µM).

On to `Cc1cc(C)cc(Cn2c(Oc3cc(C)cc(C)c3)c(C(C)C)c(=O)[nH]c2=O)c1` [Example 52, 1-(3,5-Dimethylbenzyl)-5-isopropyl-6-(3,5-dimethyl-phenoxy)-2,4-pyrimidinedione], for which the melting point fell in the range of 175 to 177 °C. In the series on mock-infected MT-4 cells, this compound gave a CD50 of 8.20 µg/mL. Further, the EC50 in the series with HIV (setting [2]) worked out at 0.098 µg/mL (≈ 0.25 µM).

In turn, `CCc1c(C(=O)c2cc(C)cc(C)c2)n(Cc2cc(C)cc(C)c2)c(=O)[nH]c1=O` [Example 53, 1-(3,5-Dimethylbenzyl)-5-ethyl-6-(3,5-dimethylbenzoyl)-2,4-pyrimidinedione] came in with a melting point of 188 to 190 °C. The compound also showed a CD50 with mock-infected MT-4 cells of 2.50 µg/mL. For the same compound, the EC50 in the series on HIV (setting [2]) amounted to 0.014 µg/mL (≈ 0.0359 µM).

The compound `Cc1cc(C)cc(Cn2c(C(=O)c3cc(C)cc(C)c3)c(C(C)C)c(=O)[nH]c2=O)c1` [Example 54, 1-(3,5-Dimethylbenzyl)-5-isopropyl-6-(3,5-dimethylbenzoyl)-2,4-pyrimidinedione] came in with a melting point of 228 to 230 °C. In addition, in the series with mock-infected MT-4 cells, the CD50 is 7.10 µg/mL. Further, the EC50 in the series on HIV (setting [2]) turned out to be 0.014 µg/mL (≈ 0.0346 µM).

In turn, `CCc1c(Sc2cc(C)cc(C)c2)n(Cc2cc(OC)cc(OC)c2)c(=O)[nH]c1=O` [Example 55, 1-(3,5-Dimethoxybenzyl)-5-ethyl-6-(3,5-dimethylphenyl)thio-2,4-pyrimidinedione] returned a melting point of 181 to 183 °C. Besides, in the series on mock-infected MT-4 cells, the CD50 was 10.8 µg/mL. Besides, the EC50 in the series with HIV (setting [1]) worked out at 0.071 µg/mL (≈ 0.166 µM).

In the case of `COc1cc(Cn2c(Sc3cc(C)cc(C)c3)c(C(C)C)c(=O)[nH]c2=O)cc(OC)c1` [Example 56, 1-(3,5-Dimethoxybenzyl)-5-isopropyl-6-(3,5-dimethyl-phenyl)thio-2,4-pyrimidinedione], the melting point lay in the range of 157 to 160 °C. Further, in the series with mock-infected MT-4 cells, the CD50 came to 11.34 µg/mL. The EC50 in the series on HIV (setting [1]) was 0.21 µg/mL (≈ 0.477 µM).

Regarding `CCc1c(Oc2cc(C)cc(C)c2)n(Cc2cc(OC)cc(OC)c2)c(=O)[nH]c1=O` [Example 57, 1-(3,5-Dimethoxybenzyl)-5-ethyl-6-(3,5-dimethylphenoxy)-2,4-pyrimidinedione], the melting point lay within 154 to 156 °C. In addition, in the series with mock-infected MT-4 cells, the CD50 stood at 36.80 µg/mL. In the series on HIV (setting [1]), the EC50 came to 1.37 µg/mL (≈ 3.34 µM).
